According to EP0183129A1, “Quinolonecarboxylic acid derivatives” (KYORIN PHARMACEUTICAL CO., LTD., priority 1984, dated 1986):
Converted amounts (≈) assume the structure as drawn. Where a name gives a salt, the structure may show the parent alone. Read-outs that look alike come from different tables or passages of the source.

What was measured:
[1] = system: Citrobacter freundii IID 976; experiment: In vitro antibacterial activity, MIC (standard strain); assay type: cell-based; conditions: IID976; Citrobacter freundii IID 976; 10^6 cells/ml; standard strain; read-out: MIC
[2] = system: P. aeruginosa IFO 12689; experiment: as above; assay type: cell-based, Pseudomonas aeruginosa; conditions: Pseudomonas aeruginosa, IFO12689; P. aeruginosa IFO 12689; 10^6 cells/ml; standard strain; read-out: MIC
[3] = system: S. pneumoniae 2054; experiment: In vitro antibacterial activity, MIC (clinical isolates); assay type: cell-based; conditions: Streptococcus pneumoniae; S. pneumoniae 2054; 10^6 cells/ml; clinical isolate; read-out: MIC
[4] = system: Proteus vulgaris IFO 3167; experiment: In vitro antibacterial activity, MIC (standard strain); assay type: cell-based; conditions: IFO3167; Proteus vulgaris IFO 3167; 10^6 cells/ml; standard strain; read-out: MIC
[5] = system: S. pyogenes 3107; experiment: In vitro antibacterial activity, MIC (clinical isolates); assay type: cell-based; conditions: Streptococcus pyogenes; S. pyogenes 3107; 10^6 cells/ml; clinical isolate; read-out: MIC
[6] = system: S. epidermidis IID 866; experiment: In vitro antibacterial activity, MIC (standard strain); assay type: cell-based; conditions: Staphylococcus epidermidis
[7] = system: S. faecalis 49; experiment: In vitro antibacterial activity, MIC (clinical isolates); assay type: cell-based; conditions: Enterococcus faecalis; S. faecalis 49; 10^6 cells/ml; clinical isolate; read-out: MIC
[8] = system: S. faecalis IID 682; experiment: In vitro antibacterial activity, MIC (standard strain); assay type: cell-based; conditions: Enterococcus faecalis, IID682; S. faecalis IID 682; 10^6 cells/ml; standard strain; read-out: MIC
[9] = system: S. faecalis 214; experiment: In vitro antibacterial activity, MIC (clinical isolates); assay type: cell-based; conditions: Enterococcus faecalis; S. faecalis 214; 10^6 cells/ml; clinical isolate; read-out: MIC
[10] = system: S. pneumoniae 15; experiment: as above; assay type: cell-based; conditions: Streptococcus pneumoniae; S. pneumoniae 15; 10^6 cells/ml; clinical isolate; read-out: MIC
[11] = system: S. marcescens GN 7577; experiment: In vitro antibacterial activity, MIC (standard strain); assay type: cell-based; conditions: Serratia marcescens, GN7577; S. marcescens GN 7577; 10^6 cells/ml; standard strain; read-out: MIC
[12] = system: Yersinia enterocolitica IID 981; experiment: as above; assay type: cell-based; conditions: IID981; Yersinia enterocolitica IID 981; 10^6 cells/ml; standard strain; read-out: MIC
[13] = system: Alcaligenes faecalis 0104002; experiment: as above; assay type: cell-based; conditions: Alcaligenes faecalis, 0104002, Alcaligenes faecalis 0104002; 10^6 cells/ml; standard strain; read-out: MIC
[14] = system: S. pyogenes 3130; experiment: In vitro antibacterial activity, MIC (clinical isolates); assay type: cell-based; conditions: Streptococcus pyogenes, read-out: MIC
[15] = system: S. agalactiae 4342; experiment: as above; assay type: cell-based; conditions: Streptococcus agalactiae; S. agalactiae 4342; 10^6 cells/ml; clinical isolate; read-out: MIC
[16] = system: C. ramosum; experiment: In vitro antibacterial activity, MIC (standard strain); assay type: cell-based; conditions: Thomasclavelia ramosa; C. ramosum; 10^6 cells/ml; standard strain; read-out: MIC
[17] = system: Serratia marcescens IID 618; experiment: as above; assay type: cell-based; conditions: Serratia marcescens, IID618, Serratia marcescens IID 618; 10^6 cells/ml; standard strain; read-out: MIC
[18] = system: B. fragilis 25285; experiment: as above; assay type: cell-based, Bacteroides fragilis; conditions: Bacteroides fragilis, 25285, B. fragilis 25285; 10^6 cells/ml; standard strain; read-out: MIC
[19] = system: S. pyogenes 3102; experiment: In vitro antibacterial activity, MIC (clinical isolates); assay type: cell-based; conditions: Streptococcus pyogenes; S. pyogenes 3102; 10^6 cells/ml; clinical isolate; read-out: MIC
[20] = system: K. pneumoniae 1-220S; experiment: In vitro antibacterial activity, MIC (standard strain); assay type: cell-based; conditions: Klebsiella pneumoniae, 1220S; K. pneumoniae 1-220S; 10^6 cells/ml; standard strain; read-out: MIC
[21] = system: Klebsiella pneumoniae KY(GN)6445; experiment: as above; assay type: cell-based; conditions: Klebsiella pneumoniae KY(GN)6445; 10^6 cells/ml; standard strain; read-out: MIC
[22] = system: S. pneumoniae 2950; experiment: In vitro antibacterial activity, MIC (clinical isolates); assay type: cell-based; conditions: Streptococcus pneumoniae; S. pneumoniae 2950; 10^6 cells/ml; clinical isolate; read-out: MIC
[23] = system: S. agalactiae 4368; experiment: as above; assay type: cell-based; conditions: Streptococcus agalactiae; S. agalactiae 4368; 10^6 cells/ml; clinical isolate; read-out: MIC
[24] = system: E. coli ML 4707; experiment: In vitro antibacterial activity, MIC (standard strain); assay type: cell-based; conditions: Escherichia coli, ML4707
[25] = system: S. agalactiae 4394; experiment: In vitro antibacterial activity, MIC (clinical isolates); assay type: cell-based; conditions: Streptococcus agalactiae; S. agalactiae 4394; 10^6 cells/ml; clinical isolate; read-out: MIC
[26] = system: S. pyogenes 4340; experiment: as above; assay type: cell-based; conditions: Streptococcus pyogenes; S. pyogenes 4340; 10^6 cells/ml; clinical isolate; read-out: MIC
[27] = system: Acinetobacter anitratus IID 876; experiment: In vitro antibacterial activity, MIC (standard strain); assay type: cell-based; conditions: Acinetobacter calcoaceticus, IID876, Acinetobacter anitratus IID 876; 10^6 cells/ml; standard strain; read-out: MIC
[28] = system: S. pyogenes 4372; experiment: In vitro antibacterial activity, MIC (clinical isolates); assay type: cell-based; conditions: Streptococcus pyogenes; S. pyogenes 4372; 10^6 cells/ml; clinical isolate; read-out: MIC
[29] = system: S. aureus Smith; experiment: In vitro antibacterial activity, MIC (standard strain); assay type: cell-based, Staphylococcus aureus; conditions: Staphylococcus aureus, S. aureus Smith, 10^6 cells/ml, standard strain
[30] = system: S. agalactiae 4470; experiment: In vitro antibacterial activity, MIC (clinical isolates); assay type: cell-based; conditions: Streptococcus agalactiae; S. agalactiae 4470; 10^6 cells/ml; clinical isolate; read-out: MIC
[31] = IID866, S. epidermidis IID 866, 10^6 cells/ml, standard strain, read-out: MIC
[32] = E. coli ML 4707, 10^6 cells/ml, standard strain, read-out: MIC

Row | Structure (SMILES) | MIC [1] | MIC [2] | MIC [3] | MIC [4] | MIC [5] | MIC [7] | MIC [8] | MIC [9] | MIC [10] | MIC [11] | MIC [12] | MIC [13] | MIC [14] | MIC [15] | MIC [16] | MIC [17] | MIC [18] | MIC [19] | MIC [20] | MIC [21] | also measured
1 | CNCC1CCN(c2c(F)cc3c(=O)c(C(=O)O)cn(C4CC4)c3c2F)C1 (stereo not drawn) [Example 8, 1-Cyclopropyl-6,8-difluoro-1,4-dihydro-7-(3-methylaminomethyl-l-pyrrolidinyl)-4-oxo-3-quinolinecarboxylic acid hydrochloride] | 0.025 µg/mL | 1.56 µg/mL | 0.05 µg/mL | 0.025 µg/mL | 0.05 µg/mL | 0.1 µg/mL | 0.1 µg/mL | 0.05 µg/mL | 0.05 µg/mL | 1.56 µg/mL | 0.1 µg/mL | 0.39 µg/mL | 0.05 µg/mL | 0.2 µg/mL | 0.78 µg/mL | 0.2 µg/mL | 0.39 µg/mL | 0.05 µg/mL | 0.1 µg/mL | 0.025 µg/mL | MIC [6, 31]: 0.025 µg/mL; MIC [22]: 0.1 µg/mL; MIC [23]: 0.1 µg/mL; MIC [24, 32]: 0.025 µg/mL; MIC [25]: 0.1 µg/mL; MIC [26]: 0.05 µg/mL; MIC [27]: 0.1 µg/mL; MIC [28]: 0.05 µg/mL; MIC ([29]; read-out: MIC): 0.025 µg/mL
2 | CNCC1CCN(c2c(F)cc3c(=O)c(C(=O)O)cn(C4CC4)c3c2Cl)C1 (stereo not drawn) [Example 12, 8-Chloro-l-cyclopropyl-6-fluoro-1,4-dihydro-7-(3-methylaminomethyl-1-pyrrolidinyl)-4-oxo-3-quinolinecarboxylic acid hydrochloride] | 0.05 µg/mL | 0.78 µg/mL | 0.05 µg/mL | 0.025 µg/mL | 0.05 µg/mL | 0.05 µg/mL | 0.05 µg/mL | 0.1 µg/mL | 0.05 µg/mL | 0.78 µg/mL | 0.05 µg/mL | 0.39 µg/mL | 0.05 µg/mL | 0.05 µg/mL | 0.39 µg/mL | 0.1 µg/mL | 0.1 µg/mL | 0.05 µg/mL | 0.05 µg/mL | 0.05 µg/mL | MIC [6, 31]: 0.025 µg/mL; MIC [30]: 0.05 µg/mL; MIC [23]: 0.05 µg/mL; MIC [24, 32]: 0.025 µg/mL; MIC [25]: 0.1 µg/mL; MIC [26]: 0.05 µg/mL; MIC [27]: 0.05 µg/mL; MIC [28]: 0.05 µg/mL; MIC ([29]; read-out: MIC): 0.025 µg/mL
3 | CCNCC1CCN(c2c(F)cc3c(=O)c(C(=O)O)cn(C4CC4)c3c2Cl)C1 (stereo not drawn) [Example 13, 8-Chloro-l-cyclorpropyl-6-fluoro-1,4-dihydro-7-(3-ethylaminomethyl-l-pyrrolidinyl)-4-oxo-3-quinolinecarboxylic acid] | 0.05 µg/mL (≈ 0.123 µM) | 1.56 µg/mL (≈ 3.82 µM) | 0.05 µg/mL (≈ 0.123 µM) | 0.025 µg/mL (≈ 0.0613 µM) | 0.05 µg/mL (≈ 0.123 µM) | 0.05 µg/mL (≈ 0.123 µM) | 0.05 µg/mL (≈ 0.123 µM) | 0.1 µg/mL (≈ 0.245 µM) | 0.025 µg/mL (≈ 0.0613 µM) | 0.78 µg/mL (≈ 1.91 µM) | 0.1 µg/mL (≈ 0.245 µM) | 0.39 µg/mL (≈ 0.956 µM) | 0.05 µg/mL (≈ 0.123 µM) | 0.05 µg/mL (≈ 0.123 µM) | 0.2 µg/mL (≈ 0.49 µM) | 0.1 µg/mL (≈ 0.245 µM) | 0.05 µg/mL (≈ 0.123 µM) | 0.05 µg/mL (≈ 0.123 µM) | 0.1 µg/mL (≈ 0.245 µM) | 0.05 µg/mL (≈ 0.123 µM) | MIC [6, 31]: 0.025 µg/mL (≈ 0.0613 µM); MIC [30]: 0.05 µg/mL (≈ 0.123 µM); MIC [23]: 0.025 µg/mL (≈ 0.0613 µM); MIC [24, 32]: 0.025 µg/mL (≈ 0.0613 µM); MIC [25]: 0.1 µg/mL (≈ 0.245 µM); MIC [26]: 0.05 µg/mL (≈ 0.123 µM); MIC [27]: 0.05 µg/mL (≈ 0.123 µM); MIC [28]: 0.05 µg/mL (≈ 0.123 µM); MIC ([29]; read-out: MIC): 0.025 µg/mL (≈ 0.0613 µM)
4 | NCC1CCN(c2c(F)cc3c(=O)c(C(=O)O)cn(C4CC4)c3c2Cl)C1 (stereo not drawn) [Example 14, 8-Chloro-l-cyclopropyl-6-fluoro-l,4-dihydro-7-(3-aminomethyl-l-pyrrolidinyl)-4-oxo-3-quinolinecarboxylic acid hydrochloride] | 0.025 µg/mL | 0.39 µg/mL | 0.05 µg/mL | 0.025 µg/mL | 0.025 µg/mL | 0.05 µg/mL | 0.05 µg/mL | 0.05 µg/mL | 0.025 µg/mL | 0.39 µg/mL | 0.05 µg/mL | 0.2 µg/mL | 0.025 µg/mL | 0.05 µg/mL | 0.39 µg/mL | 0.05 µg/mL | 0.05 µg/mL | 0.025 µg/mL | 0.05 µg/mL | 0.025 µg/mL | MIC ([6]; IID866): 0.0125 µg/mL; MIC [30]: 0.05 µg/mL; MIC [23]: 0.05 µg/mL; MIC [24]: 0.0125 µg/mL; MIC [25]: 0.1 µg/mL; MIC [26]: 0.05 µg/mL; MIC [27]: 0.05 µg/mL; MIC [28]: 0.05 µg/mL; MIC [29]: 0.0125 µg/mL
